{
  "source": "patent US10798939B2",
  "about": "“Cellulose binding domain chitosan seed coating” (priority 2015, dated 2020)",
  "tested_on": "V. radiata",
  "conditions": "AgNO3 0-2 mM bolus doses, day 4 to day 8",
  "method": "For two days beans were allowed to germinate in the dark at 20° C. as described above. On day 3, the plate was incubated at 20° C./12 hr photoperiod and 100% humidity, and 500 μL of distilled water were added to each well. On day 5 another 750 μL of distilled water were added and the cover of the well plate was removed. The EC50 was determined as the concentration at which the change in mass of the seedling was half that of untreated V. radiata.",
  "data": [
    {"smiles": "O=[N+]([O-])[O-].[Ag+]", "note": "[AgNO3, silver nitrate]", "values": [
      {"measurement": "change in mass of V. radiata", "result": "decreased significantly in a dose response fashion"}
    ]}
  ]
}
